Columns and labels:
AR = biological target: T1, AR (Mus musculus, UniProt P19091); assay: Dose ranging experiment in intact adult male mice (seminal vesicles, prostate epithelium); assay type: in vivo
T1 construct: we first treated adult male mice with compound A89 in a dose ranging experiment; from tissue; host or cells: seminal vesicles and prostate epithelium of intact adult male mice
T1 sequence (P19091 1-899): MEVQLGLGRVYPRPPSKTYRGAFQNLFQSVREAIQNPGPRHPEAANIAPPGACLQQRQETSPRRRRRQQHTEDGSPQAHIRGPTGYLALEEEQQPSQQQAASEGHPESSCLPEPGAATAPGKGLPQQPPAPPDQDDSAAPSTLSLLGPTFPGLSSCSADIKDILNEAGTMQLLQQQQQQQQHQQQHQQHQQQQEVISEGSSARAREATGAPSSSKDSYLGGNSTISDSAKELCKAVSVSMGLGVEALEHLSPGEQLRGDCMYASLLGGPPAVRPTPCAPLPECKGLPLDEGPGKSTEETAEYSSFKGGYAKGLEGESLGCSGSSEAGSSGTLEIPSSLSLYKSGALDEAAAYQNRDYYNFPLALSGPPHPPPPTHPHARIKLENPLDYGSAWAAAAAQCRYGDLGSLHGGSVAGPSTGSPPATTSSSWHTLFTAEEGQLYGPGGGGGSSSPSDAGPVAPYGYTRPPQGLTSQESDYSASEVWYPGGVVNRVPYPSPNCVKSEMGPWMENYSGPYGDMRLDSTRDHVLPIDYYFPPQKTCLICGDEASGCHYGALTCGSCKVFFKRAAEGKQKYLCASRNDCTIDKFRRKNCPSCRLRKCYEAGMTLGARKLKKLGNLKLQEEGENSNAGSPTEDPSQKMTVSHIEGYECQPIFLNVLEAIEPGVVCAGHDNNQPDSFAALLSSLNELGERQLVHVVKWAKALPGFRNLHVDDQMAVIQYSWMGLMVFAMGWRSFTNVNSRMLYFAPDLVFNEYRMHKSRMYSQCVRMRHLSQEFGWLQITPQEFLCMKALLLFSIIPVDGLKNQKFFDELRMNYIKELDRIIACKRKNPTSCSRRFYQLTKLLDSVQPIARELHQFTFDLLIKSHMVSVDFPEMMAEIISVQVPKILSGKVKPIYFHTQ
Description: FIG. 17. Compound A89 maintains activity in vivo and is efficacious in a CRPC xenograft model. (a) Morphological changes in seminal vesicles of intact adult male mice following treatment with DMSO vehicle, Bic (0.5 mg/day) or A89 (mg/day as indicated) for 7 days. (b) H&E stained cross-sections of prostate ductal epithelium from above mice treated with DMSO, Bic, or A89 (10 mg/day). (c) AR and Ki-67 staining in pre- and post-castration relapsed VCaP xenograft tumor sections following treatment with A89 (5 mg/day) or Bic (0.5 mg/day) for 7 days. (d) mRNA levels of AR and AR-target genes in post-castration relapsed VCaP xenograft tumors following treatment with A89 (5 mg/day) for 7 days. Error bars represent S.E.M.
To evaluate the activity of the chemotype A compounds in vivo we first treated adult male mice with compound A89 in a dose ranging experiment from 0.5 mg/day to 10 mg/day via intraperitoneal injection for 7 days. […] We next evaluated A89 in VCaP xenograft tumors that had relapsed following an initial response to castration, which is a model of CRPC.

AR in C4-2 cells = biological target: T2, AR in C4-2 cells (Homo sapiens, UniProt P10275, T878A)
T2 sequence (P10275 1-920 T878A): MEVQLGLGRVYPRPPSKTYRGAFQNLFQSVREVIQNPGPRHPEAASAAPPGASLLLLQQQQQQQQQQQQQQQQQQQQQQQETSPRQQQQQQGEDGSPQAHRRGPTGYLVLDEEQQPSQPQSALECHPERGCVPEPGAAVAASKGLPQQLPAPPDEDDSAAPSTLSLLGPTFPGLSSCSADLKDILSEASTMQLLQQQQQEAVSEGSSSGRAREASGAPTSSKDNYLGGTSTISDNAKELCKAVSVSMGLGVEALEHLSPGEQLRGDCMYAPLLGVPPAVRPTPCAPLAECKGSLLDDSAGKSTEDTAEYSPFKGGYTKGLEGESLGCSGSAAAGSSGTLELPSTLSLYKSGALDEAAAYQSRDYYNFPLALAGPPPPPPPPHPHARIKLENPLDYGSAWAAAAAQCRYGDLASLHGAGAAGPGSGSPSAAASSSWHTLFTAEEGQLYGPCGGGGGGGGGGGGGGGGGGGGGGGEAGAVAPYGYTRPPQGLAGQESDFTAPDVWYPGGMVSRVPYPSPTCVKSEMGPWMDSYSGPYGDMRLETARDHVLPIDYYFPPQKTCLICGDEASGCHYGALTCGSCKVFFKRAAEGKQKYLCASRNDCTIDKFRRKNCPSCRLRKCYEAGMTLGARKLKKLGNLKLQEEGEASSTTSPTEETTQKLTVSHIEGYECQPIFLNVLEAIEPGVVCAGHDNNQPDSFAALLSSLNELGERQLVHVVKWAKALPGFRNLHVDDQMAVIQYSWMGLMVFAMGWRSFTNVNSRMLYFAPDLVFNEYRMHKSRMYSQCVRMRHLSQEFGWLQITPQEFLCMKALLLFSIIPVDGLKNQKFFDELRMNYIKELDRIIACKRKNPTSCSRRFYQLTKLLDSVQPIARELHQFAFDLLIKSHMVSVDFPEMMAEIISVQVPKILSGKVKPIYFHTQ

[1] = steroid depleted medium, data not shown
[2] = steroid depleted medium, dose response

CCOc1cc(F)c(S(=O)(=O)NCc2ccc3c(c2)OCO3)cc1F [Compound A89, N-(1,3-benzodioxol-5-ylmethyl)-4-ethoxy-2,5-difluorobenzenesulfonamide]
general health of mice (AR; 0.5 mg/day to 10 mg/day intraperitoneal injection for 7 days): outwardly healthy
androgen sensitive prostate epithelium (AR; adult male mice, 7 days (10 mg/day in FIG. 17b)): atrophy
seminal vesicles dose-dependent involution, beginning at dose (AR; adult male mice, intraperitoneal injection for 7 days): ≥ 2.5 mg/day
basal PSA (AR in C4-2 cells; 24 hours (FIG. 10a)): decrease in basal PSA
total AR protein levels (AR in C4-2 cells; 24 hours (FIG. 10a)): noteworthy decrease
decrease in AR protein in the presence of proteasome inhibitor (AR in C4-2 cells; proteasome inhibitors (MG115 and MG132)): blocked in the presence of a proteasome inhibitor
PSA expression (AR in C4-2 cells; [1]): reduced
nuclear AR levels (AR in C4-2 cells; [1]): reduced nuclear AR levels
AR protein (AR in C4-2 cells; [2]): dose dependent decrease
PSA levels (AR in C4-2 cells; [2]): dose dependent decrease
